Laboratory results from patent US20260283941A1, “PHARMACEUTICAL COMPOSITION CONTAINING PYRROLE GASTRIC ACID SECRETION INHIBITOR AND PREPARATION METHOD THEREFOR” (JIANGSU CAREPHAR PHARMACEUTICAL CO., LTD., priority 2022, published 2026).

Test: Stability investigation: properties (appearance) of the injection solutions
Type: physicochemical
Conditions: pH of the injectable composition 2.0
Protocol: The compound represented by formula II and the stabilizer were weighed and dissolved in 90% of a prescribed amount of water for injection. The pH of the solution was adjusted with hydrochloric acid, and then water for injection was added to the full amount. The solution was filled up to 2 mL, and was flushed with nitrogen before and after filling and sealing. The solution was sterilized at 121° C. for 15 minutes to obtain the composition. […] The changes of impurities were detected by high-performance liquid chromatography (HPLC). The analytical method used to detect the impurity content was as follows:
The compound represented by formula II and disodium edetate or calcium disodium edetate were weighed and dissolved in 90% of a prescribed amount of water for injection. The pH of the solution was adjusted with hydrochloric acid, and then water for injection was added to the full amount. The solution was filled in a 2 mL ampoule, and was flushed with nitrogen before and after filling and sealing. The sample was sterilized at 121° C. for 15 minutes to obtain the composition. The compositions were placed under conditions including a high temperature of 60° C. and illumination at 5000 Lx for stability investigation, to determine the properties of the injection solutions and the changes of impurities.

Compound: CNCc1cc(-c2ccccc2F)n(S(=O)(=O)c2cccc(OCCCOC)c2)c1.Cl [compound represented by formula II]
- Solubility (in words): reduced solubility
